BindingDB's records for doi:10.7270/Q2SX6GDH (n/a, 1996)

Experiments:
[1] = target: T1, 5-hydroxytryptamine receptor 3A/3B (Rattus norvegicus, UniProt P35563+Q9JJ16); experiment: ChEBML_3165
T1 sequence (P35563 whole entry): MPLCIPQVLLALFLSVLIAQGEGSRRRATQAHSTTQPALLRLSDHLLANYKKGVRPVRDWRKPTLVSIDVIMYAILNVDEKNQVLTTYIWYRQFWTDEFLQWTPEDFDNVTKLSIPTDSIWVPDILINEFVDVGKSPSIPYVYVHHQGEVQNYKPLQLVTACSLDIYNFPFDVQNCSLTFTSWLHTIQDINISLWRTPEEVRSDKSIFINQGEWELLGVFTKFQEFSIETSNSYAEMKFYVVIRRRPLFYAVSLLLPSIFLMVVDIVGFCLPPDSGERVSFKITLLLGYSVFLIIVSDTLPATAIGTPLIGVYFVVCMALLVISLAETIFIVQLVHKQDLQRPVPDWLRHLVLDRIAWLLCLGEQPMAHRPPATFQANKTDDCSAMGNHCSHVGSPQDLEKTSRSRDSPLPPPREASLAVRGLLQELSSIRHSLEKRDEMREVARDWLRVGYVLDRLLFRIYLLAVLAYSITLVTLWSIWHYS
T1 sequence (Q9JJ16 whole entry): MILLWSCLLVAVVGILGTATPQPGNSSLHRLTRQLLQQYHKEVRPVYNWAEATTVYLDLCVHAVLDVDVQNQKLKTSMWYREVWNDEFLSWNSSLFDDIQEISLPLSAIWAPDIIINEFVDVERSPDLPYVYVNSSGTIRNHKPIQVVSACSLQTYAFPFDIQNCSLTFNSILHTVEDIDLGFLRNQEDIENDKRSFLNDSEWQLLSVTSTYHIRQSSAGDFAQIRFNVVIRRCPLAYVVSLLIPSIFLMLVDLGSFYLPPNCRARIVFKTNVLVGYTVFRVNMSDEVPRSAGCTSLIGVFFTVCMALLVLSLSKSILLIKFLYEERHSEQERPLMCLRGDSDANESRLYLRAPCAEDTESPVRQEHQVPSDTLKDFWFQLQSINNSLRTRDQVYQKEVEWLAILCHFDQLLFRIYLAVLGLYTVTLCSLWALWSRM
Description: (§1) Compound was tested for its ability to displace [3H]-Q-ICS 205-930 from 5-hydroxytryptamine 3 receptor in rat cortex homogenates

[2] = target: 5-hydroxytryptamine receptor 2A (Rattus norvegicus, UniProt P14842); experiment: ChEBML_2582
Sequence of 5-hydroxytryptamine receptor 2A (P14842 whole entry): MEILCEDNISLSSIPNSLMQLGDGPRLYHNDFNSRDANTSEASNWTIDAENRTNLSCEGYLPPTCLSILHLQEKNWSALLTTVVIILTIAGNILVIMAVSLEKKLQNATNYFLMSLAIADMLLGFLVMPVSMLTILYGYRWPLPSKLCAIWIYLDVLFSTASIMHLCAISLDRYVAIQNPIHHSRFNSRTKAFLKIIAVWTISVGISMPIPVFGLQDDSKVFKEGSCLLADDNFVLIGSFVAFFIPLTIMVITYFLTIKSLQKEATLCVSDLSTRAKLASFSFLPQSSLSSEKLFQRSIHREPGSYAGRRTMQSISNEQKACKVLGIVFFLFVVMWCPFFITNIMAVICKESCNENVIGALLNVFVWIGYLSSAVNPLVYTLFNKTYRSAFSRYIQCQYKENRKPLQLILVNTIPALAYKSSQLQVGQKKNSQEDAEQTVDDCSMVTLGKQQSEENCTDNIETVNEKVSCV
Description: Compound was tested for its ability to displace [3H]DOB from 5-hydroxytryptamine 2A receptor in rat cortex homogenates

[3] = target: T2, 5-hydroxytryptamine receptor 1D (Sus scrofa, UniProt P79400); experiment: (§2) Compound was tested for its ability to displace [3H]-5-HT binding to 5-hydroxytryptamine 1D receptor recognition sites in pig caudate membranes
T2 sequence (P79400 whole entry): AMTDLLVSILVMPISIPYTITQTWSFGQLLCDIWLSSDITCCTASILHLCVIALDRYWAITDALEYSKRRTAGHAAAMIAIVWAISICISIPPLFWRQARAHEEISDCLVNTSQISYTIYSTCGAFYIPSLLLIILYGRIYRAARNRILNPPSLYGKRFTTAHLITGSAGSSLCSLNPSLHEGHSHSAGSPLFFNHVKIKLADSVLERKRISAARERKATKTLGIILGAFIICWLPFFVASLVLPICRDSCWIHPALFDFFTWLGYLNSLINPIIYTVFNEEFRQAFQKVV

[4] = target: T2, 5-hydroxytryptamine receptor 1D; experiment: ChEBML_1955
Description: as §2

[5] = target: T1, 5-hydroxytryptamine receptor 3A/3B; experiment: as §1
[6] = target: T2, 5-hydroxytryptamine receptor 1D; experiment: Compound was tested for its ability to displace [125I]GTI binding to 5-hydroxytryptamine 1D receptor recognition sites in pig caudate membranes
[7] = Compound was tested for its ability to displace [3H]-5-HT binding to 5-hydroxytryptamine 1D receptor recognition sites in pig caudate membranes
[8] = Compound was tested for its ability to displace [3H]mesulergine from 5-hydroxytryptamine 2C receptor in pig cortex
[9] = Compound was tested for its ability to displace [3H]8-OH-DPAT from 5-hydroxytryptamine 1A receptor in pig cortex

IC50 [2]	IC50 [3]	IC50 [5]	IC50 [6]	SMILES	IC50 [1]	IC50 [4]	IC50 [7]	IC50 [8]	IC50 [9]
> 10 µM	0.008 µM	2.7 µM	–	CN1CCC(c2c[nH]c3ccc(-n4cnnc4)cc23)CC1	–	0.0012 µM	–	–	–
7.2 µM	0.049 µM	4.1 µM	0.016 µM	CN(C)CCc1c[nH]c2ccc(Cn3cncn3)cc12 [N,N-dimethyl-2-[5-(1H-1,2,4-triazol-1-ylmethyl)-1H-indol-3-yl]ethanamine]	–	–	–	–	–
–	–	> 10 µM	–	CNS(=O)(=O)Cc1ccc2[nH]cc(CCN(C)C)c2c1 [Sumax]	–	–	–	–	–
–	–	–	–	CN(C)CCc1c[nH]c2ccc(-n3cncn3)cc12	–	–	0.02 µM	0.5 µM	0.025 µM

SMILES	IC50 [2]	IC50 [3]	IC50 [5]	IC50 [6]	IC50 [1]	IC50 [4]	IC50 [7]	IC50 [8]	IC50 [9]
CN(C)CCc1c[nH]c2ccc(-n3cnnc3)cc12 [Dimethyl-[2-(5-[1,2,4]triazol-4-yl-1H-indol-3-yl)-ethyl]-amine]	> 10 µM	0.002 µM	–	–	> 10 µM	0.00043 µM	–	–	–
